1 cell line from the supplement of paper PMC10307832 can be followed below.

Test in all cases: relative viability (nuclei count vs DMSO), 5 days (fraction); higher = more cells survive
Compound in the experiment “Tosedostat + Crizotinib”: CC(C)C[C@@H](C(=O)N[C@H](C(=O)OC1CCCC1)c1ccccc1)[C@H](O)C(=O)NO [Tosedostat] + C[C@@H](Oc1cc(-c2cnn(C3CCNCC3)c2)cnc1N)c1c(Cl)ccc(F)c1Cl [Crizotinib] (partner 1 µM)
In a few lines: (§1)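 Relative viability equals treated-well nuclei counts divided by vehicle-well nuclei counts. Counts came from 4× images of lung cancer cell lines grown in 1536-well plates for 5 days after pin-tool dosing on the day after seeding. Dosing used one drug alone or a fixed anchor-drug dose plus five library-drug doses (not always all listed) in √10 steps, and values are medians of duplicate plates.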

Compound in the experiment “Tosedostat + Pemetrexed”: CC(C)C[C@@H](C(=O)N[C@H](C(=O)OC1CCCC1)c1ccccc1)[C@H](O)C(=O)NO [Tosedostat] + Nc1nc2[nH]cc(CCc3ccc(C(=O)N[C@@H](CCC(=O)O)C(=O)O)cc3)c2c(=O)[nH]1 [Pemetrexed] (partner 0.2 µM)
In a few lines:
as §1

Compound in experiment [1]: CC1=NN=C(O1)C2=NN=C(C=C2)N3CCC(CC3)OC4=C(C=CC(=C4)F)Cl + Cc1nc(NC(=O)N2CCC[C@H]2C(N)=O)sc1-c1ccnc(C(C)(C)C(F)(F)F)c1 [Alpelisib] (partner 2 µM)
In a few lines: as §1

Compound in experiment [2]: CC1=NN=C(O1)C2=NN=C(C=C2)N3CCC(CC3)OC4=C(C=CC(=C4)F)Cl + O=C(CCCCCCC(=O)Nc1ccccc1)NO [Vorinostat] (partner 1 µM)
An outline of the steps:
as §1

Regarding UMC-11, the relative viability with Tosedostat + Crizotinib (first compound 0.02 µM) was 0.688; with Tosedostat + Crizotinib (first compound 0.06325 µM), 0.648; with Tosedostat + Crizotinib (first compound 0.2 µM) it was 0.6; in the experiment with Tosedostat + Crizotinib (first compound 0.6325 µM) it was 0.559; in the experiment with Tosedostat + Crizotinib (first compound 2 µM) it was 0.459; with Tosedostat + Pemetrexed (first compound 0.02 µM), 0.86. In addition, the relative viability was 0.723 with Tosedostat + Pemetrexed (first compound 0.06325 µM); 0.85 with Tosedostat + Pemetrexed (first compound 0.2 µM); 0.84 in the experiment with Tosedostat + Pemetrexed (first compound 0.6325 µM); 0.94 in the experiment with Tosedostat + Pemetrexed (first compound 2 µM); 0.744 in experiment [1] (first compound 0.253 µM); 0.679 in experiment [1] (first compound 0.8 µM). Also, the relative viability in experiment [1] (first compound 2.53 µM) amounted to 0.687; in experiment [1] (first compound 8 µM), 0.667; in experiment [2] (first compound 0.253 µM) it was 0.361; in experiment [2] (first compound 0.8 µM), 0.351; in experiment [2] (first compound 2.53 µM), 0.431; in experiment [2] (first compound 8 µM), 0.383.
